Laboratory results taken from patent US20230416248A1, “COMPOUNDS AND USES THEREOF” (Foghorn Therapeutics Inc., priority 2020, published 2023).
pIC50: −log10 of the molar value. Where two headings read alike, the source gives them in different places.

Key:
BRM = target: T1, BRM (Homo sapiens, UniProt P51531); assay: ATPase catalytic activity of BRM, ADP-Glo in vitro biochemical assay; settings: for pIC50: 30 nM BRM, 400 μM ATP; for Ratio* (BRG1 IC50 (μM) divided by BRM IC50 (μM)): selectivity ratio BRG1 IC50 / BRM IC50
T1 construct: made in house; host or cells: High Five insect cells
In short: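 Recombinant BRM (30 nM) hydrolysed 400 μM ATP with 20 nM salmon sperm DNA in pH 8 Tris buffer containing 20 mM MgCl2, 50 mM NaCl, 0.1% Tween-20 and 1 mM DTT, 1 h at room temperature. ADP formed was quantified by ADP-Glo luminescence.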

BRG-1 = target: T2, BRG-1 (Homo sapiens, UniProt P51532); assay: ATPase catalytic activity of BRG-1, ADP-Glo in vitro biochemical assay; settings: 30 nM BRG-1, 400 μM ATP, read-out: BRG1 IC50
T2 construct: made in house; host or cells: High Five insect cells
In short: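 BRG-1 ATPase activity was measured by ADP-Glo. Unconsumed ATP was depleted for 40 min at room temperature, then ADP was converted to ATP for 60 min and read as luminescence.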

[1] = ATPase catalytic activity, ADP-Glo

T1 sequence (P51531 whole entry): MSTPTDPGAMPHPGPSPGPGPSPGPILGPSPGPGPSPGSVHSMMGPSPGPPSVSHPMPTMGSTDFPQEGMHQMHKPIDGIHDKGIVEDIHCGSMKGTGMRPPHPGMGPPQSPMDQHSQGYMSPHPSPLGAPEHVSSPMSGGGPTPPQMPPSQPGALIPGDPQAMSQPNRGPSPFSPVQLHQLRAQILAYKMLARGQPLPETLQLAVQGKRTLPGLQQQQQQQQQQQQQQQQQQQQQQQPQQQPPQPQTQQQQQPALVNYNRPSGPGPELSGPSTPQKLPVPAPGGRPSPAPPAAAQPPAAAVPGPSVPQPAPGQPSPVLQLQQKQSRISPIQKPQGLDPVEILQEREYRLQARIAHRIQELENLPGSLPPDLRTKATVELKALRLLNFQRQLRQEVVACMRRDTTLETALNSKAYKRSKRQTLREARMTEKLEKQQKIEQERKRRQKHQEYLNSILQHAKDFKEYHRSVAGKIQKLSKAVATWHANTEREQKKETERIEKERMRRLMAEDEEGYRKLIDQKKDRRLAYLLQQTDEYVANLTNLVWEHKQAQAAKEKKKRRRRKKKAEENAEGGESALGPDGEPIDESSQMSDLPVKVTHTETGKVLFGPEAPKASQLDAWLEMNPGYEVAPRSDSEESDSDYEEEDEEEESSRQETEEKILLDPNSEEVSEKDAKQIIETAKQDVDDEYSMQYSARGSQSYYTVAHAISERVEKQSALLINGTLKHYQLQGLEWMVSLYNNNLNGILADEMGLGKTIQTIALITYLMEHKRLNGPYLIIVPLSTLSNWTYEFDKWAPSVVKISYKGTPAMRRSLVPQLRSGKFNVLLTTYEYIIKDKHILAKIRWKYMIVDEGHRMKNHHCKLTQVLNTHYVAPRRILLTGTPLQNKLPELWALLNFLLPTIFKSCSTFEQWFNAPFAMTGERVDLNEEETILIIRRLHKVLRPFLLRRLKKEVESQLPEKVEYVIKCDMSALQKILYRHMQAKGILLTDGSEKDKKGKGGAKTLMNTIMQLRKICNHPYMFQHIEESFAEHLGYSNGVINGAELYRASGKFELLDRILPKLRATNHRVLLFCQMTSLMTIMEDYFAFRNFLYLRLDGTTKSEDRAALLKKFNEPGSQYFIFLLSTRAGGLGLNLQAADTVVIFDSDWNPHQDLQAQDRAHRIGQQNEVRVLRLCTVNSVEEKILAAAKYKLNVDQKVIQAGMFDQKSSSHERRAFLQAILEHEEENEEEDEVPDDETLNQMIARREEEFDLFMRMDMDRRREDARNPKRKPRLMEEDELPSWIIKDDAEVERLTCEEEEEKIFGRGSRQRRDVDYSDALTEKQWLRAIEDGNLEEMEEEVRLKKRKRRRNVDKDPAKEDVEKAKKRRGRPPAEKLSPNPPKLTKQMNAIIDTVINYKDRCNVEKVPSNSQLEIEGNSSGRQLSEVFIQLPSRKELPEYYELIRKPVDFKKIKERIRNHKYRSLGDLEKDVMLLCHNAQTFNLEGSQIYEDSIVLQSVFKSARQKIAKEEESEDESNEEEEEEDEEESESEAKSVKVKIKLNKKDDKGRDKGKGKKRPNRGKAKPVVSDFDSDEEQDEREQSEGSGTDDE
T2 sequence (P51532 whole entry): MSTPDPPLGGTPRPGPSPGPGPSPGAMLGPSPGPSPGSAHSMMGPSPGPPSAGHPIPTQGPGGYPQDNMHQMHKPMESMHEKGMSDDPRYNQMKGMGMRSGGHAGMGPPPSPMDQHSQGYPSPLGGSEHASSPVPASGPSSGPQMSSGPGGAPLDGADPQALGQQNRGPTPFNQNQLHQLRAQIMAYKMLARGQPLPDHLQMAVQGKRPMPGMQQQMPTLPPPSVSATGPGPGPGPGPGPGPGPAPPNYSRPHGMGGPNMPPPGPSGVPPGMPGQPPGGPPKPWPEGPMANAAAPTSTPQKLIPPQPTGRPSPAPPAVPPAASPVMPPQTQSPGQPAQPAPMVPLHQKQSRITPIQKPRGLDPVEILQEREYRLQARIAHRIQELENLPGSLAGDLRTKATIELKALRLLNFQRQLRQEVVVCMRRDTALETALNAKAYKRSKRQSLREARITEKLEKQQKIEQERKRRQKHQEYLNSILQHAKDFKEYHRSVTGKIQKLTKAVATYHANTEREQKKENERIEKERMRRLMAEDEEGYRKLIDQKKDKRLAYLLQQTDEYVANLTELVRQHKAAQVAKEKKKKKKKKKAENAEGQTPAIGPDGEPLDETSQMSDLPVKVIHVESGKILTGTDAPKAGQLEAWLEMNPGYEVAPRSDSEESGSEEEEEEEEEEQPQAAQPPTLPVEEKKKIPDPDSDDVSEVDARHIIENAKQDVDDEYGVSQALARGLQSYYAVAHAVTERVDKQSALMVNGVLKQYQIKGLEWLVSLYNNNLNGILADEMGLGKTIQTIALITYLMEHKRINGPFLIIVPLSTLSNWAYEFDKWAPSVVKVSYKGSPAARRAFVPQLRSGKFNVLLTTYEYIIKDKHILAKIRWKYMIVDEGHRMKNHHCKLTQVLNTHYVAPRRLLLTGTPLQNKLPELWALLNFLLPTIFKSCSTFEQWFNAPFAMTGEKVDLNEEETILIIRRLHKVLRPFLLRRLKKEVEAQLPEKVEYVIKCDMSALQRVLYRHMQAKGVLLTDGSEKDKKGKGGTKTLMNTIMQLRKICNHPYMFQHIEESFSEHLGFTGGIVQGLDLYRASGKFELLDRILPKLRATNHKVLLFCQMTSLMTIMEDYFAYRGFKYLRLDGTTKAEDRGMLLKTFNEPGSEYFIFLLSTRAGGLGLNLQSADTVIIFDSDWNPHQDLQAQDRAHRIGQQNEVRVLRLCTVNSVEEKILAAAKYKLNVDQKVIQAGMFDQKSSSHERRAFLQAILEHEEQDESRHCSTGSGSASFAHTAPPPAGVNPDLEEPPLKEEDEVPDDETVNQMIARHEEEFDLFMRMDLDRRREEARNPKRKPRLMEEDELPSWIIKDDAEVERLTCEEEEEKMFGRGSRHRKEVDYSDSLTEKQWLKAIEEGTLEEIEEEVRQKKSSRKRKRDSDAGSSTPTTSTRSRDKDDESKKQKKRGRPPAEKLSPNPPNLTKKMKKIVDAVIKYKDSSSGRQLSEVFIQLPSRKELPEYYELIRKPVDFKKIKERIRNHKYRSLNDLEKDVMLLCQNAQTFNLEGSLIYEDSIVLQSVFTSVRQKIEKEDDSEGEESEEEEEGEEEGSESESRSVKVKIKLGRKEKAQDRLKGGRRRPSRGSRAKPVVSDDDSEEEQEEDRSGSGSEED

SMILES	pIC50 (BRM; ADP-Glo ATPase assay)	Ratio* (BRG1 IC50 (μM) divided by BRM IC50 (μM)) (BRM)	pIC50 (BRG-1; ADP-Glo ATPase assay)	pIC50 (BRM; [1])	Ratio* (BRM; ratio of BRG1 IC50 to BRM IC50)	pIC50 (BRG-1; [1])	Ratio* (BRM; ratio BRG1 IC50 / BRM IC50)
O=C(NCc1cc2nc(-c3cccc4c3OCO4)ccc2cn1)c1ccc2c(c1)S(=O)(=O)CCOC2 [Compound 229]	6.93	12.81	5.82				
CS(=O)(=O)c1cc(C(=O)NCc2cc3nc(-c4cncc(C5CC5)n4)ccc3cn2)ccc1C(F)F [Compound 231]	6.89	17.98	5.63				
CO[C@@H]1CCN(c2cccc(-c3ccc4cnc(CNC(=O)c5ccc6c(c5)S(=O)(=O)CCOC6)cc4n3)n2)C[C@@H]1C [Compound 438]				7.50	11.23	6.45	
C[C@@H]1C[C@@H](N(C)c2cccc(-c3ccc4cnc(CNC(=O)c5ccc6c(c5)S(=O)(=O)CCOC6)cc4n3)n2)C[C@H](C)O1 [Compound 334]				7.67	17.82	6.42	
C[C@@H]1CN(c2cccc(-c3ccc4cnc([C@H](C)NC(=O)c5ccc6c(c5)S(=O)(=O)[C@@H](C)COC6)cc4n3)n2)C[C@H](C)O1 [Compound 325]				7.97	16.33	6.76	
O=C(NCc1cc2nc(N3CCOc4cc(C5CC5)ncc43)ccc2cn1)c1ccc2c(c1)S(=O)(=O)CCOC2 [Compound 739]	7.90		6.66				17.37
O=C(NCc1cc2nc(N3CCOc4cc(C(F)F)cnc43)ccc2cn1)c1ccc2c(c1)S(=O)(=O)CCOC2 [Compound 508]				7.88	10.53	6.86	
COc1ccnc2c1CCCN2c1ccc2cnc(CNC(=O)c3ccc4c(c3)S(=O)(=O)CCOC4)cc2n1 [Compound 439]				8.36	10.04	7.36	
CS(=O)(=O)c1cc(C(=O)NCc2cc3nc(-c4cncc(C5CC5)n4)ccc3cn2)cc(F)c1Cl [Compound 272]	6.61	17.28	5.37				
CC1CCc2ccc(C(=O)NCc3cc4nc(-c5cccc(N6C[C@@H](C)O[C@@H](C)C6)n5)ccc4cn3)cc2S1(=O)=O (stereo partly drawn) [Compound 324]				7.61	24.73	6.21	
COCCn1cc2cccc(-c3ccc4cnc(CNC(=O)c5ccc6c(c5)S(=O)(=O)CCOC6)cc4n3)c2n1 [Compound 701]				7.06	9.96	6.06	
C[C@]1(F)CCCN(c2cccc(-c3ccc4cnc(CNC(=O)c5ccc6c(c5)S(=O)(=O)CCOC6)cc4n3)n2)C1 [Compound 317]				8.20	5.55	7.46	
O=C(NCc1cc2nc(-c3cccc([C@H]4CC4(F)F)n3)ccc2cn1)c1ccc2c(c1)S(=O)(=O)CCOC2 [Compound 267]	7.45	30.99	5.96				
Cc1cnc2c(n1)CCCN2c1ccc2cnc(CNC(=O)c3ccc4c(c3)S(=O)(=O)CCOC4)cc2n1 [Compound 440]				7.49	14.01	6.34	
C[C@@H]1CN(c2cccc(-c3ccc4cnc(CNC(=O)c5cnc6c(c5)S(=O)(=O)[C@H](C)CCC6)cc4n3)n2)C[C@H](C)O1 [Compound 515]				6.64	11.23	5.59	
Cc1ncc(C(=O)NCc2cc3nc(-c4cncc(C5CC5)n4)ccc3cn2)cc1S(C)(=O)=O [Compound 298]	6.66	9.90	5.66				
Cc1ccc(C(=O)NCc2cc3nc(-c4cncc(C5CC5)n4)ccc3cn2)cc1S(=O)(=O)N(C)C [Compound 283]	6.71	17.67	5.46				
O=C(NCc1cc2nc(-c3cccc(N(CC4COC4)C4CC4)n3)ccc2cn1)c1ccc2c(c1)S(=O)(=O)CCOC2 [Compound 428]				7.30	6.45	6.49	
CC1(c2cnc3c(c2)OCCN3c2ccc3cnc(CNC(=O)c4ccc5c(c4)S(=O)(=O)CCOC5)cc3n2)CC1 [Compound 712]	8.07		6.99				11.90

SMILES	pIC50 (BRM; ADP-Glo ATPase assay)	Ratio* (BRG1 IC50 (μM) divided by BRM IC50 (μM)) (BRM)	pIC50 (BRG-1; ADP-Glo ATPase assay)	pIC50 (BRM; [1])	Ratio* (BRM; ratio of BRG1 IC50 to BRM IC50)	pIC50 (BRG-1; [1])	Ratio* (BRM; ratio BRG1 IC50 / BRM IC50)
Cc1ccc2c(c1)OCCN2c1ccc2cnc(CNC(=O)c3ccc4c(c3)S(=O)(=O)CCCO4)cc2n1 [Compound 551]				7.69	19.65	6.40	
CN1CCCCc2ccc(-c3ccc4cnc(CNC(=O)c5ccc6c(c5)S(=O)(=O)CCOC6)cc4n3)nc21 [Compound 569]				6.81	3.32	6.29	
CS(=O)(=O)c1cc(C(=O)NCc2cc3nc(-c4cncc(C5CC5)n4)ccc3cn2)ccc1C1CC1 [Compound 266]	6.09	6.11	5.30				
COC(C)(C)CN(C)c1cccc(-c2ccc3cnc(CNC(=O)c4ccc5c(c4)S(=O)(=O)CCOC5)cc3n2)n1 [Compound 44]	7.04	7.67	6.16				
CS(=O)(=O)c1cncc(C(=O)NCc2cc3nc(-c4cncc(C5CC5)n4)ccc3cn2)c1 [Compound 306]	6.07	4.98	5.37				
O=C(NCc1cc2nc(-c3ccc4c(n3)OCCC4)ccc2cn1)c1ccc2c(c1)S(=O)(=O)CCOC2 [Compound 499]				6.54	4.12	5.92	
CO[C@H](C)c1cnc2c(c1)CCCN2c1ccc2cnc(CNC(=O)c3ccc4c(c3)S(=O)(=O)CCOC4)cc2n1 [Compound 608]				7.35	21.42	6.02	
COCCNc1cccc(-c2ccc3cnc(CNC(=O)c4ccc(C(F)F)c(S(C)(=O)=O)c4)cc3n2)n1 [Compound 80]	6.75	11.75	5.68				
O=C(NCc1cc2nc(N3CCOc4nc(C(F)F)ccc43)ccc2cn1)c1ccc2c(c1)S(=O)(=O)CCOC2 [Compound 846]	6.39		5.34				11.26
COCc1cc2c(cn1)N(c1ccc3cnc(CNC(=O)c4ccc5c(c4)S(=O)(=O)CCOC5)cc3n1)CCC2 [Compound 821]	7.10		6.02				12.03
O=C(NCc1cc2nc(-c3cccc(N4CCC(F)CC4)n3)ccc2cn1)c1ccc2c(c1)S(=O)(=O)CCOC2 [Compound 186]	7.66	11.50	6.60				
CN1CCc2nc(-c3ccc4cnc(CNC(=O)c5ccc6c(c5)S(=O)(=O)CCOC6)cc4n3)ccc21 [Compound 176]	6.36	4.10	5.75				
Cc1cnc2c(c1)CCCN2c1ccc2cnc(CNC(=O)c3ccc4c(c3)S(=O)(=O)CCCO4)cc2n1 [Compound 514]				7.23	7.89	6.33	
CN(C)c1cc2c(cn1)N(c1ccc3cnc(CNC(=O)c4ccc5c(c4)S(=O)(=O)CCOC5)cc3n1)CCO2 [Compound 803]	8.09		6.98				12.88
Cc1cc2c(-c3ccc4cnc(CNC(=O)c5ccc6c(c5)S(=O)(=O)CCOC6)cc4n3)cccc2n1C [Compound 130]	7.97	9.77	6.98				
O=C(NCc1cc2nc(-c3cncc(C4CC4)n3)ccc2cn1)c1cnc2c(c1)S(=O)(=O)CCCCC2 [Compound 450]				7.83	12.27	6.74	
C[C@@H]1CN(c2cccc(-c3ccc4cnc([C@@H](C)NC(=O)c5ccc6c(c5)S(=O)(=O)CCOC6)cc4n3)n2)C[C@H](C)O1 [Compound 121]	7.06	5.73	6.30				
Cc1ccc2c(c1)OCCN2c1ccc2cnc(CNC(=O)c3ccc4c(c3)S(=O)(=O)CCOC4)cc2n1 [Compound 420]				8.38	10.13	7.37	
